Publication PMC9853328, “Potent Platinum(IV) Prodrugs That Incorporate a Biotin Moiety to Selectively Target Cancer Cells” (Pharmaceutics, 2022)
Several values for one entry are separate records, joined by “and”; a condition that tells them apart may be missing. Identical values can stand only once. Like-named read-outs stand apart in the source and are kept apart here.

Experiments:
H460 lung cancer cells = assay: MTT in vitro cytotoxicity assay, H460; type: cell-based; conditions: 72 h drug exposure, n = 3, read-out: GI50 ± SEM, H460
Procedure: (§1) The in vitro cytotoxicity assays were undertaken at Calvary Mater Hospital, Waratah, NSW, Australia, following a method previously published in the literature. A stock solution for each compound was prepared in DMSO (30 mM) and stored at −20 °C. The cell lines used in the study include HT29 colon, U87 glioblastoma, MCF-7 breast, A2780 ovarian, H460 lung, A431 skin, Du145 prostate, BE2-C neuroblastoma, SJ-G2 glioblastoma, MIA pancreas, and cisplatin-resistant ADDP ovarian (subclone of A2780) cancer cells, as well as the non-cancerous-derived MCF10A breast cell line. The cancer cell lines were cultured in a humidified atmosphere 5% CO2 at 37 °C and maintained in Dulbecco’s modified Eagle’s medium (Trace Biosciences, Sydney, Australia), supplemented with 10% foetal bovine serum, sodium bicarbonate (10 mM), penicillin (100 IU/mL), streptomycin (100 µg/mL), and glutamine (4 mM). The non-cancerous MCF10A cell line was maintained in DMEM:F12 (1:1) cell culture media, with 5% heat inactivated horse serum, supplemented with penicillin (50 IU/mL), streptomycin (50 µg/mL), glutamine (2 mM), HEPES (20 mM), epidermal growth factor (20 ng/mL), hydrocortisone (500 ng/mL), cholera toxin (100 ng/mL), and insulin (10 µg/mL). Cells were plated in duplicate in medium (100 µL) at a density of 2500–4000 cells per well in 96-well plates. On day 0, (24 h after plating) when the cells were in logarithmic growth, medium (100 μL) with or without the test agent was added to each well. The growth inhibitory effects were evaluated after 72 h drug exposure, using the MTT (3-(4,5-dimethylthiazol-2-yl)-2,5-diphenyltetrazolium bromide) assay, with the absorbance read at 540 nm. An eight-point dose–response curve was produced, which was used to determine the concentration at which growth was inhibited by 50% (GI50). This calculation was based on the difference between the optical density values on day 0 and those at the end of drug exposure. […] Experiments were conducted on three separate occasions and GI50 values were reported as the mean and standard error of the mean.

[1] = system: cisplatin-resistant ADDP ovarian (subclone of A2780) cancer cells; assay: MTT in vitro cytotoxicity assay, ADDP; type: cell-based; conditions: 72 h drug exposure, n = 3, read-out: GI50 ± SEM, ADDP
Procedure: as §1

HT29 colon cancer cells = assay: MTT in vitro cytotoxicity assay, HT29; type: cell-based; conditions: for GI50: MTT, 72 h drug exposure, n = 3, read-out: GI50 ± SEM, HT29; for number-fold potency against cisplatin, HT29 colon: ratio of GI50 values, 72 h
Procedure: as §1

A431 skin cancer cells = assay: MTT in vitro cytotoxicity assay, A431; type: cell-based; conditions: 72 h drug exposure, n = 3, read-out: GI50 ± SEM, A431
Procedure: as §1

[2] = system: ADDP (subclone of A2780) versus A2780 ovarian cancer cell lines; assay: Resistance factor, GI50 in ADDP/GI50 in A2780; type: cell-based
SJ-G2 glioblastoma cells = assay: MTT in vitro cytotoxicity assay, SJ-G2; type: cell-based; conditions: 72 h drug exposure, n = 3, read-out: GI50 ± SEM, SJ-G2
Procedure: as §1

[3] = system: BE2-C neuroblastoma cells; assay: MTT in vitro cytotoxicity assay, BE2-C; type: cell-based; conditions: 72 h drug exposure, n = 3, read-out: GI50 ± SEM, BE2-C
Procedure: as §1

U87 glioblastoma cells = assay: MTT in vitro cytotoxicity assay, U87; type: cell-based; conditions: 72 h drug exposure, n = 3, read-out: GI50 ± SEM, U87
Procedure: as §1

[4] = system: MIA pancreas cancer cells; assay: MTT in vitro cytotoxicity assay, MIA; type: cell-based; conditions: 72 h drug exposure, n = 3, read-out: GI50 ± SEM, MIA
Procedure: as §1

[5] = Lipophilicity by RP-HPLC (logkw); type: physicochemical; conditions: capacity factor in 100% water
Procedure: HPLC experiments were carried out using an Agilent Technologies (Melbourne, Australia) 1260 Infinity instrument, equipped with a Phenomenex (Sydney, Australia) Onyx^TM Monolithic C18 reverse phase column (100 × 4.6 mm, 130 Å). The mobile phase was made up of 0.06% TFA in water (solvent A) and 0.06% TFA in an acetonitrile:water (9:1) mixture (solvent B). Samples were eluted over a gradient of 0–100% (% B) for 15 min, at a flow rate of 1 mL/min, with a sample injection volume of 10 µL. Eluting peaks were detected using a PDA at 254 nm.
For lipophilicity experiments, RP-HPLC was utilised to determine the logkw of each compound, similarly to what has been previously published for similar complexes. Samples were eluted at various isocratic percentages, ranging from 18–30% solvent B. To determine the dead volume of the column, potassium iodide was used as an external dead volume marker. The retention time of each sample in each isocratic run ( tr ) and the dead volume time ( t0 ) were both substituted in Equation (1) to calculate the capacity factor ( k ). (1) k=tr−t0/t0
Following this, logk was plotted against the percentage of ACN. For each complex, a minimum of four concentrations of ACN were used. This produced a linear graph with the equation in the form:(2) logk=Sφ+logkw where S is the slope, φ is the percentage of ACN, and logkw is the y-intercept, which represents the capacity factor of the compound in 100% water.
It is important to explore the lipophilicity of a drug, as it is widely believed that increased lipophilicity results in greater cellular accumulation. To understand the lipophilicity of 1–4, RP-HPLC was utilised to determine the logkw of each complex. To calculate this, each complex was eluted at different isocratic percentages, whereby the retention time was used in Equation (1) to calculate the capacity factor (k). The percentage of the organic solvent was then plotted against log k for each isocratic percentage, producing a linear equation that allowed for logkw to be deduced using Equation (2) (Figure S38). The logkw value represents the capacity factor of the compound in 100% water and can be used to compare a series of compounds. Since 1–4 comprise the same axially bound ligand, biotin, the lipophilicity was influenced by the groups on the PL. The logkw of each complex is presented in Table 1, with their corresponding PL. The increasing lipophilicity of the complexes followed the order: 1 < 4 < 2 < 3.

[6] = system: panel of cancer cell lines; assay: MTT cytotoxicity averaged across the panel of cancer cell lines; type: cell-based; conditions: for enhanced activity compared to platinum(II) precursor across the cancer cell lines: across all cancer cell lines; for GI50: calculated from the panel of cancer cell lines tested (Table S4)
[7] = system: Du145 prostate cancer cells; assay: MTT in vitro cytotoxicity assay, Du145; type: cell-based; conditions: for GI50: MTT; for number-fold potency against cisplatin, Du145 prostate: ratio of GI50 values
Procedure: as §1

[8] = system: A2780 ovarian cancer cells; assay: MTT in vitro cytotoxicity assay, A2780; type: cell-based; conditions: 72 h drug exposure, n = 3, read-out: GI50 ± SEM, A2780
Procedure: as §1

[9] = system: non-cancerous MCF10A breast cell line; assay: MTT in vitro cytotoxicity assay, MCF10A; type: cell-based; conditions: 72 h drug exposure, n = 3, read-out: GI50 ± SEM, MCF10A
Procedure: as §1

[10] = system: MCF-7 breast cancer cells; assay: MTT in vitro cytotoxicity assay, MCF-7; type: cell-based; conditions: for GI50: MTT, 72 h drug exposure, n = 3, read-out: GI50 ± SEM, MCF-7
[11] = system: MCF-7 (breast cancer) cells; assay: Cellular platinum uptake by ICP-MS, MCF-7; type: cell-based; conditions: at both 1.0 and 0.1 µM, 4 h
Procedure: Cellular uptake studies were carried out in MCF-7 (breast cancer) and MCF10A (healthy breast) cell lines. Reported in Table S2 are the numbers of cells per well that were seeded onto 12-well plates for each replicate and cell line. After incubating overnight at 37 °C, the cell culture medium was replaced with fresh media containing the test compounds at concentrations of 1.0 and 0.1 µM. After incubating for 4 h, the medium was removed, the cells were washed with PBS twice, and then incubated with trypsin solution until the cells dissociated from the plate. The harvested cells were then placed into an Eppendorf tube and PBS was added to a volume of 1 mL. Cell numbers were determined using trypan blue staining. Cell pellets were obtained after centrifugation and the cells were dispersed in 50 µL of MilliQ™ water and stored immediately at −20 °C until platinum analysis was conducted. These experiments were repeated in triplicate on three separate occasions.
Sixty-nine percent HNO3 (50 µL) was added to each sample and digested at 80 °C for 1.5 h, before being taken up to 1 mL with H2O. The platinum analysis was conducted using a PerkinElmer (Melbourne, Australia) NexION™ 300X inductively coupled plasma mass spectrometer (ICP-MS). A four-point calibration curve was produced by serial dilution of a certified platinum reference standard. The calibration was linear over the working range (R^2 > 0.9999) and the most abundant platinum isotope (m/z = 195) was monitored. The average values for three independent experiments were reported with standard deviations.

[12] = 72 h drug exposure, n = 3, read-out: GI50 ± SEM, Du145

Row | SMILES | GI50 (H460 lung cancer cells) | GI50 [1] | GI50 (HT29 colon cancer cells) | number-fold potency against cisplatin, HT29 colon (HT29 colon cancer cells) | GI50 (A431 skin cancer cells) | Resistance factor (RF) [2] | GI50 (SJ-G2 glioblastoma cells) | GI50 [3] | GI50 (U87 glioblastoma cells) | GI50 [4] | logkw [5] | enhanced activity compared to platinum(II) precursor across the cancer cell lines [6] | GI50 [6] | GI50 [7, 12] | number-fold potency against cisplatin, Du145 prostate ([7]; 72 h) | GI50 [8] | GI50 [9] | GI50 [10] | other results
1 | O=C1N[C@H]2[C@H](CS[C@H]2CCCCC(=O)[O][Pt-2]23([OH])([NH2+][C@H]4CCCC[C@@H]4[NH2+]2)[n+]2cccc4ccc5ccc[n+]3c5c42)N1.O=[N+]([O-])[O-].O=[N+]([O-])[O-] [Complex 1, [Pt(1,10-phenthroline)(1S,2S-diaminocyclohexane)(biotin)(hydroxido)](NO3)2] | 300 ± 20 nM | 240 ± 10 nM | 170 ± 60 nM | 66 fold | 600 ± 110 nM | 0.96 | 290 ± 70 nM | 1000 ± 100 nM | 970 ± 150 nM | 210 ± 30 nM | 0.64 | comparable activity | 455 nM | 120 ± 40 nM | 10 fold | 250 ± 20 nM | 280 ± 40 nM | 850 ± 140 nM | –
2 | Cc1c(C)c2ccc[n+]3c2c2c1ccc[n+]2[Pt-2]31([OH])([O]C(=O)CCCC[C@@H]2SC[C@@H]3NC(=O)N[C@@H]32)[NH2+][C@H]2CCCC[C@@H]2[NH2+]1.O=[N+]([O-])[O-].O=[N+]([O-])[O-] [Complex 2, [Pt(5,6-dimethyl-1,10-phenanthroline)(1S,2S-diaminocyclohexane)(biotin)(hydroxido)](NO3)2] | 18 ± 4 nM | 11 ± 4 nM | 11 ± 5 nM | – | 36 ± 6 nM | 0.55 | 36 ± 10 nM | 100 ± 10 nM | 32 ± 8 nM | 10 ± 2 nM | 0.78 | ~ 2 fold | 27 nM | – | 300 fold | 20 ± 4 nM | 14 ± 4 nM | 22 ± 8 nM | GI50 ([7]; 72 h, read-out: GI50, Du145 prostate cancer cell line): 4 nM
3 | Cc1cc2ccc[n+]3c2c2c1ccc[n+]2[Pt-2]31([OH])([O]C(=O)CCCC[C@@H]2SC[C@@H]3NC(=O)N[C@@H]32)[NH2+][C@H]2CCCC[C@@H]2[NH2+]1.O=[N+]([O-])[O-].O=[N+]([O-])[O-] [Complex 4, [Pt(5-methyl-1,10-phenanthroline)(1S,2S-diaminocyclohexane)(biotin)(hydroxido)](NO3)2] | 32 ± 10 nM | 29 ± 5 nM | 28 ± 9 nM | 404 fold | 110 ± 20 nM | 0.853 and 0.85 | 100 ± 30 nM | 100 ± 20 nM | 110 ± 30 nM | 20 ± 4 nM | 0.74 | ~ 2.3 fold | 55 nM | 9 ± 4 nM | 133 fold | 34 ± 5 nM | 31 ± 9 nM | 33 ± 4 nM | fold lower uptake in MCF-7 than its platinum(II) precursor [11]: ~ 2 fold; fold more active than its platinum(II) precursor in MCF-7 ([10]; ratio of GI50 values): 6 fold
